According to ChEMBL document CHEMBL1201862, “PubChem BioAssay data set” (2004):
The source made the active and inactive calls.

Assays:
[1] = target: Dual specificity tyrosine-phosphorylation-regulated kinase 1A (Rattus norvegicus, UniProt Q63470); assay type: biochemical, Homo sapiens
Escherichia coli = assay: microbe, parasite or virus in culture
[2] = target: T1, Nuclear receptor subfamily 0 group B member 1 (Homo sapiens, UniProt P51843); assay: Luminescence-based cell-based high throughput dose response assay for inhibitors of the orphan nuclear receptor subfamily 0, group B, member 1 (DAX1; NR0B1). [Related pubchem assays (depositor defined):AID504766, AID504790]; assay type: functional
T1 sequence (P51843 whole entry): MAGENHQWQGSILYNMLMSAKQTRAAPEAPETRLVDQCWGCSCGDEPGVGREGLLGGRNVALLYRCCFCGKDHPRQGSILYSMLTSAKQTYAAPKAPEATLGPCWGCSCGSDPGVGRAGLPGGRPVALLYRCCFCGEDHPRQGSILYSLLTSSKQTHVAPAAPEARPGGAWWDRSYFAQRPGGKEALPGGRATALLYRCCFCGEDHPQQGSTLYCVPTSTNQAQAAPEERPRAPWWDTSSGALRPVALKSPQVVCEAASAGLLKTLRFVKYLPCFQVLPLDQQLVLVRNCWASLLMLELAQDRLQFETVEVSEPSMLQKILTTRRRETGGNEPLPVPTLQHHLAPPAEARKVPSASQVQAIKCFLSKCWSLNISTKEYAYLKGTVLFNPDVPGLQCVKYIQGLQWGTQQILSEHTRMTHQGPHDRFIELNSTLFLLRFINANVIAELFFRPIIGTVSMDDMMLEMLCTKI

HEK293 = assay: cells; assay type: functional, cell-based; conditions: Homo sapiens
[3] = target: T2, Sentrin-specific protease 8 (Homo sapiens, UniProt Q96LD8); assay: inhibition of sentrin protease 8 – biochemical, luminescence, set 2, SAR follow-up (AID 588601); assay type: functional
T2 sequence (Q96LD8 whole entry): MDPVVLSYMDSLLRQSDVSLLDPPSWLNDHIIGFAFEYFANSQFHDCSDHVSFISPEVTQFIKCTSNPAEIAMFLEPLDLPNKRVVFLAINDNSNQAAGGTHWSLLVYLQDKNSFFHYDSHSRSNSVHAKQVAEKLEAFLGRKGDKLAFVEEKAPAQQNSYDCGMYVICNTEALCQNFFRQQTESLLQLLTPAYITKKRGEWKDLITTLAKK

Caspase-3 [4] = target: T3, Caspase-3 (Homo sapiens, UniProt P42574); assay: SAR Analysis of small molecule inhibitors of Sentrin-specific proteases (SENPs) using a Caspase-3 Selectivity assay. [Related pubchem assays (depositor defined):AID2540, AID2599, AID434973, AID489001]; assay type: functional
T3 sequence (P42574 whole entry): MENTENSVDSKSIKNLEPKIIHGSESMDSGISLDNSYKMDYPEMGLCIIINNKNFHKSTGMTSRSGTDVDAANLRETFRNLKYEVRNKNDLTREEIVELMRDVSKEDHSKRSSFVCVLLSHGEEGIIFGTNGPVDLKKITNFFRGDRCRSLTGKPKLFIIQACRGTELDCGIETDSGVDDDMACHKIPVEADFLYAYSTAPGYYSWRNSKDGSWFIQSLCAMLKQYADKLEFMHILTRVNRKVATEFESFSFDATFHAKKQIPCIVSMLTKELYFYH

[5] = target: T4, Sentrin-specific protease 7 (Homo sapiens, UniProt Q9BQF6); assay: inhibition of human SENP7 cleavage activity – biochemical, luminescence, SAR follow-up (AID 504497); assay type: functional
T4 sequence (Q9BQF6 whole entry): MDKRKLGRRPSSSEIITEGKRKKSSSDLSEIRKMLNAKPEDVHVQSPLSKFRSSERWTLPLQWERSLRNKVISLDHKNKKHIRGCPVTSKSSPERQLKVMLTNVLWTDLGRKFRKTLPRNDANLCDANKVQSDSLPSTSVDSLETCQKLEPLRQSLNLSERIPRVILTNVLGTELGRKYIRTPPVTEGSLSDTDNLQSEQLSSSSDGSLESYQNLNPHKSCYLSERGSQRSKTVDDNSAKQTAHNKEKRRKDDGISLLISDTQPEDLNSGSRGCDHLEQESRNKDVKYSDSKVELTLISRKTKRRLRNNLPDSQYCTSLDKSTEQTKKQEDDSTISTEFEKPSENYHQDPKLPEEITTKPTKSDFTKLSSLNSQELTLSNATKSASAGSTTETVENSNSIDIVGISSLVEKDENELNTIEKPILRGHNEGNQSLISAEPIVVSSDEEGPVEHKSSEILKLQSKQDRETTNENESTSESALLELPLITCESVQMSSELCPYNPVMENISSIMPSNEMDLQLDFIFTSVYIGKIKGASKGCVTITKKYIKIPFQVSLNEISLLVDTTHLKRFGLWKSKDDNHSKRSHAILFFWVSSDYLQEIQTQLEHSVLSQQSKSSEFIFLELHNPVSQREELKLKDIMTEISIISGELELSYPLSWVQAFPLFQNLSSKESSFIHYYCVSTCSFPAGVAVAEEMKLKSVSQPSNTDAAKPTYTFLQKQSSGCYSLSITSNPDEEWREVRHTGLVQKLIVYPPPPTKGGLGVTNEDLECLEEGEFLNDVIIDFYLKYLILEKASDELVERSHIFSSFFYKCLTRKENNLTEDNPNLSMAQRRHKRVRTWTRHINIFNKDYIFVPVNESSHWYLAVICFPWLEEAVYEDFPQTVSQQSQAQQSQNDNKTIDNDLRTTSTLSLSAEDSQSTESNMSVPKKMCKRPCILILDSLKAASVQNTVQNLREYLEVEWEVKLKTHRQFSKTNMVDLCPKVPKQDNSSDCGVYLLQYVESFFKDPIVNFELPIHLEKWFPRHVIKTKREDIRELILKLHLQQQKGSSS

Caspase-3 [6] = target: T3, Caspase-3; assay: inhibition of recombinant caspase-3 activity – biochemical, luminescence, set 2, selectivity assay for SENP protease inhibitor project, SAR follow-up (AID 588599); assay type: functional
[7] = target: T2, Sentrin-specific protease 8; assay: inhibition of human SENP8 cleavage activity – biochemical, luminescence, SAR follow-up (AID 504501); assay type: functional
[8] = target: T5, Sentrin-specific protease 6 (Homo sapiens, UniProt Q9GZR1); assay: SAR Analysis of small molecule inhibitors of Sentrin-specific protease 6 (SENP6) using a Luminescent assay. [Related pubchem assays (depositor defined):AID2582, AID2599]; assay type: functional
T5 sequence (Q9GZR1 whole entry): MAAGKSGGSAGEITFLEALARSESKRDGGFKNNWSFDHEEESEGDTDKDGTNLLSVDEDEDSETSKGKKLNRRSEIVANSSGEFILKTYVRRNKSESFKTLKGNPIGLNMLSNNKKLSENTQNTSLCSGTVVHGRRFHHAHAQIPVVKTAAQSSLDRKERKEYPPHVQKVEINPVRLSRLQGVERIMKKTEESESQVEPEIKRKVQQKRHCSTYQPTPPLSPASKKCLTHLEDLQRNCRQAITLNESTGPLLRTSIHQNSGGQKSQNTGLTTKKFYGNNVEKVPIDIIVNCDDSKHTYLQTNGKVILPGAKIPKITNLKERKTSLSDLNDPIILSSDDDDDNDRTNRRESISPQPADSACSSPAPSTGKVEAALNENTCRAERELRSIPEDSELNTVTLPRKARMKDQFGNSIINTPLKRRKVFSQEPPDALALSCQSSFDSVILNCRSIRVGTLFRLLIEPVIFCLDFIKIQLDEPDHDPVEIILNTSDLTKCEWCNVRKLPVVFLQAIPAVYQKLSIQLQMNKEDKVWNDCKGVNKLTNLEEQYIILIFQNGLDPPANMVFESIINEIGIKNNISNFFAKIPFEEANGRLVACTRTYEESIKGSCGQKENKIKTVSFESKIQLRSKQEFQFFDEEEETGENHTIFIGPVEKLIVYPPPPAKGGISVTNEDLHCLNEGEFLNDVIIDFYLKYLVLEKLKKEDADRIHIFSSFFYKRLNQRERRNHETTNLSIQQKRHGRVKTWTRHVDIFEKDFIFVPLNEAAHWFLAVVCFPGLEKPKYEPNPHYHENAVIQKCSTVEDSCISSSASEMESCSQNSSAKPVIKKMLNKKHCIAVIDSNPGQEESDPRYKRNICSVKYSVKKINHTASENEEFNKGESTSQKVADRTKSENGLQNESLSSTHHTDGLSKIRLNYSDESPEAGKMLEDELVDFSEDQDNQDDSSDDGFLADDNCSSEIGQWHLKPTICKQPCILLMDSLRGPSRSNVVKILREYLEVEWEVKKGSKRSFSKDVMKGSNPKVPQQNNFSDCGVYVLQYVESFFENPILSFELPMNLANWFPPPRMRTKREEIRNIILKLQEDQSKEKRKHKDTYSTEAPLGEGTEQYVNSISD

[9] = target: T5, Sentrin-specific protease 6; assay: inhibition of human SENP6 catalytic domain – biochemical, luminescence, set 2, SAR follow-up (AID 588598); assay type: functional
[10] = target: T4, Sentrin-specific protease 7; assay: inhibition of human SENP7 cleavage activity – biochemical, luminescence, set 2, SAR follow-up (AID 588600); assay type: functional
[11] = target: T6, Rac GTPase-activating protein 1 (Homo sapiens, UniProt Q9H0H5); assay: blockers of MgcRacGAP-driven Rac1 GTP hydrolysis – biochemical, ADP Hunter fluorescence, primary and confirmatory, confirmation (AID 624330); assay type: functional
T6 sequence (Q9H0H5 whole entry): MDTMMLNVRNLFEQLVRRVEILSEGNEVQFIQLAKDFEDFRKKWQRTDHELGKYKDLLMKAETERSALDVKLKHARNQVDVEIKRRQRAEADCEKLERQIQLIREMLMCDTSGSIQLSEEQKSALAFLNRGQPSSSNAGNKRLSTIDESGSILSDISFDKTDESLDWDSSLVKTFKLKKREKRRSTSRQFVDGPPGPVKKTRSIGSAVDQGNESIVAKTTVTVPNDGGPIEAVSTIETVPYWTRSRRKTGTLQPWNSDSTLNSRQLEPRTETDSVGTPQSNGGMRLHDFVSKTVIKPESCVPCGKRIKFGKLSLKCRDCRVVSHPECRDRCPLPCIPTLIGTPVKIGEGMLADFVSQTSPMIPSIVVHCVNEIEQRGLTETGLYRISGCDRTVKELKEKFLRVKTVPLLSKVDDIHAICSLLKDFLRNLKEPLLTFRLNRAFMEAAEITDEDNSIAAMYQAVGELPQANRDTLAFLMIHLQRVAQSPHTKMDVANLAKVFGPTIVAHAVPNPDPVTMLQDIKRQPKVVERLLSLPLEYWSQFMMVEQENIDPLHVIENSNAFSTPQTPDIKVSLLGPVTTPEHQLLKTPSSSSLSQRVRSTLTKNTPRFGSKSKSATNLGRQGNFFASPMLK

[12] = target: T7, RNA-binding protein pos-1 (Caenorhabditis elegans, UniProt G5EF15); assay: disruptors of C. elegans POS-1 RNA interaction – biochemical, fluorescence polarization, dose response (AID 1964);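 also: purified POS-1 fused to maltose binding protein made in E. coli; potency of compounds blocking POS-1 binding to fluorescent RNA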
T7 sequence (G5EF15 whole entry): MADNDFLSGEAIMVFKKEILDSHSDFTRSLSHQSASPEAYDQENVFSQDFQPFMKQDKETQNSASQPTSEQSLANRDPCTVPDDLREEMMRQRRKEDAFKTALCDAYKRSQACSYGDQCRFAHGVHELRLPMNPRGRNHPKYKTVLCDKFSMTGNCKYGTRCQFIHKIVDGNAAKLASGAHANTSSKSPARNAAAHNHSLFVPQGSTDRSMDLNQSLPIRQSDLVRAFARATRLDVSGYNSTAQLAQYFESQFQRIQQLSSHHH

[13] = target: T8, Zinc finger protein mex-5 (Caenorhabditis elegans, UniProt Q9XUB2); assay: potency of MEX-5 RNA-binding blockers – biochemical, C. elegans, fluorescence polarization, dose response (AID 1960)
T8 sequence (Q9XUB2 whole entry): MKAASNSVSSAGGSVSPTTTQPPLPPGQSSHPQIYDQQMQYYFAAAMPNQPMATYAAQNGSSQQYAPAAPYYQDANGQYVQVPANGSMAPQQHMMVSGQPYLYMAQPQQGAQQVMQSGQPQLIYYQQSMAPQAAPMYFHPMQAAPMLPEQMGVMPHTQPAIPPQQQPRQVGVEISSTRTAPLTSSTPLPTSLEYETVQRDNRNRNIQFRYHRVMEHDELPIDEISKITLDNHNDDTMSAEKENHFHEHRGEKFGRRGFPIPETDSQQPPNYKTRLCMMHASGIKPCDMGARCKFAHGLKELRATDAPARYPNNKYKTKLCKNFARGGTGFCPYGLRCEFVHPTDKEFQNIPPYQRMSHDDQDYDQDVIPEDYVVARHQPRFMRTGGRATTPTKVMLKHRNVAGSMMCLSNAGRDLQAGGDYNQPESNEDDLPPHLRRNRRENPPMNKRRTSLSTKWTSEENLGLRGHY

[14] = target: Glucose-6-phosphate 1-dehydrogenase (Homo sapiens, UniProt P11413); assay: inhibition of Homo sapiens G6PD, dose series – biochemical, fluorescence, selectivity assay for P. falciparum G6PD inhibitor project, dose response (AID 504792); assay type: functional
Sequence of Glucose-6-phosphate 1-dehydrogenase (P11413 whole entry): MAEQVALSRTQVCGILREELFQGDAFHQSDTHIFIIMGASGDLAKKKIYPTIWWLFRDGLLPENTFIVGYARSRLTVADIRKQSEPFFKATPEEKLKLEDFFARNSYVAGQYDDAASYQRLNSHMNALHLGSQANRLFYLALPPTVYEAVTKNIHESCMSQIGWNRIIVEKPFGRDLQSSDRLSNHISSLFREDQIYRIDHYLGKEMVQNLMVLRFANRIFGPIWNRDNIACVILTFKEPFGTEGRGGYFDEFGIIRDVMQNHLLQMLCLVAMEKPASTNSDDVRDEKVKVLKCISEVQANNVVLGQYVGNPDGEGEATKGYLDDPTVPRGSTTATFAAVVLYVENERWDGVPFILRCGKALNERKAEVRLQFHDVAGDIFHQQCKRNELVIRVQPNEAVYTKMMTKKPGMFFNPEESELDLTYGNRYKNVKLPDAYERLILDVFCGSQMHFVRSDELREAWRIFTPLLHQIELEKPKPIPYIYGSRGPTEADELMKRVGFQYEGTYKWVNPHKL

[15] = target: Induced myeloid leukemia cell differentiation protein Mcl-1 (Homo sapiens, UniProt Q07820); assay type: functional
Sequence of Induced myeloid leukemia cell differentiation protein Mcl-1 (Q07820 whole entry): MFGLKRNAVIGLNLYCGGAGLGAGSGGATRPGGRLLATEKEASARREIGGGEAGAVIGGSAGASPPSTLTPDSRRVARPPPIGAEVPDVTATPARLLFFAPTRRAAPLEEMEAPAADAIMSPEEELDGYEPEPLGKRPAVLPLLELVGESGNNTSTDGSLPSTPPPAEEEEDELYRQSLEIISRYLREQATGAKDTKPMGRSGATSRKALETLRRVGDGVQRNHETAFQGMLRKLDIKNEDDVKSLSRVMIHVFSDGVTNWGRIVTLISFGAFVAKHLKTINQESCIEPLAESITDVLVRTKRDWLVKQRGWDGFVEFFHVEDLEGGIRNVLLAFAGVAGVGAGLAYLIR

## Cn1c(C(=O)NC2CC2)cc2c(=O)n(C)c3ccccc3c21
[1]
  AC50: 15.5 µM (active)

## COc1ccc(S(=O)(=O)NCc2ccco2)c2ccccc12
Escherichia coli
  AC50: 28.5 µM (active)

## Oc1ccc(-c2nc3ccccc3nc2-c2ccc(O)cc2O)c(O)c1
[1]
  AC50: 3.12 µM (active)

## COc1ccccc1-c1nnc(-c2ccc(C)cc2)o1
[2]
  IC50: > 67.5 µM (inactive)
HEK293
  IC50: > 67.5 µM (inactive)

## O=C(Nc1nc2ccccc2s1)c1ccsc1
[3]
  IC50: 9.92 µM (active)
Caspase-3 [4]
  IC50: 1.1 µM (active)
[5]
  IC50: 1.1 µM (active)
Caspase-3 [6]
  IC50: 10.4 µM (active)
[7]
  IC50: 1.4 µM (active)
[8]
  IC50: 1.4 µM (active)
[9]
  IC50: 10.6 µM (active)
[10]
  IC50: 10.3 µM (active)

## O=C(Nc1nc2ccccc2s1)c1cccc(S(=O)(=O)N2CCN(c3ccccc3)CC2)c1
[3]
  IC50: > 99 µM (inactive)
Caspase-3 [6]
  IC50: > 99 µM (inactive)
[9]
  IC50: > 99 µM (inactive)
[10]
  IC50: > 99 µM (inactive)

## Cc1ccccc1C(=O)N1CCC(C(=O)Nc2ccccc2Cl)CC1
Escherichia coli
  AC50: 27.8 µM (active)

## Cn1c(N2CCOCC2)c(/C=N/O)c2ccccc21
[2]
  IC50: > 67.5 µM (inactive)
[11]
  IC50: 74.5 µM (active)
HEK293
  IC50: > 67.5 µM (inactive)

## COc1cc(O)c(C(=O)O)c(-c2cc(O)c(O)cc2C)c1 [ALTENUSIN]
[12]
  EC50: 31 µM (active)
[13]
  EC50: > 300 µM (inconclusive)
[14]
  IC50: 31 µM (inactive)
[15]
  IC50: 4.15 µM (active)
